# Reference: ChEMBL document CHEMBL1201862, “PubChem BioAssay data set” (2004)
#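 Test compounds were applied to cells in 96-well plates for 48 hours at 5 doses. GI50 is the concentration that inhibits growth by half.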 Activity calls are given as the source filed them. No stated cut-off is given here; in the data, active = GI50 up to about 1.1 µM and inactive = higher.
# Columns and labels:
# Experiment in all cases: NCI tumour cell line growth inhibition, 48 h
# [1] = test system: U-251
# [2] = test system: SK-MEL-28
# [3] = test system: SN12C
# [4] = test system: MOLT-4
# [5] = test system: A549
# [6] = test system: RXF 393
# [7] = test system: MDA-MB-231
# [8] = test system: BT-549
# [9] = test system: K562
# [10] = test system: SF-295
# [11] = test system: CCRF-CEM
# [12] = test system: SF-268
# [13] = test system: SK-OV-3
# [14] = test system: SF-539
# [15] = test system: MDA-MB-435
# [16] = test system: CAKI-1
# [17] = test system: NCI-H23
# [18] = test system: PC-3
# [19] = test system: RPMI-8226
# [20] = test system: T47D
# [21] = test system: NCI-H522
# [22] = test system: SNB-75
# [23] = test system: EKVX
# [24] = test system: 786-0
# [25] = test system: UACC-62
# [26] = test system: HT-29
# [27] = test system: LOX IMVI
# [28] = test system: OVCAR-4
# [29] = test system: NCI-H460
# [30] = test system: KM12
# [31] = test system: COLO 205
# [32] = test system: SNB-19
# [33] = test system: A498
# [34] = test system: HOP-62
# [35] = test system: NCI-H226
# [36] = test system: Hs-578T
# [37] = test system: UACC-257
# [38] = test system: SK-MEL-2
# [39] = test system: Malme-3M
# [40] = test system: HCC 2998
# [41] = test system: HCT-15
# [42] = test system: SK-MEL-5
# [43] = test system: SW-620
# [44] = test system: M14
# [45] = test system: OVCAR-8
# [46] = test system: IGROV-1
# [47] = test system: TK-10
# [48] = test system: MCF7
# [49] = test system: NCI/ADR-RES
# [50] = test system: ACHN
# [51] = test system: UO-31
# [52] = test system: HL-60
# [53] = test system: SR
# [54] = test system: HCT-116
# [55] = test system: OVCAR-5
# [56] = test system: OVCAR-3
# [57] = test system: DU-145
# [58] = test system: HOP-92
# [59] = test system: MDA-N
compound,measurement,setting,value
COc1cc2c3c(cc(Cl)nc3c1OC)C(=O)C(=O)N2,GI50,[1],16.5 µM (inactive)
same,GI50,[2],17.1 µM (inactive)
same,GI50,[3],8.99 µM (inactive)
same,GI50,[4],2.34 µM (inactive)
same,GI50,[5],19.7 µM (inactive)
same,GI50,[6],13.6 µM (inactive)
same,GI50,[7],1.94 µM (inactive)
same,GI50,[8],16.2 µM (inactive)
same,GI50,[9],2.91 µM (inactive)
same,GI50,[10],18.6 µM (inactive)
same,GI50,[11],1.69 µM (inactive)
same,GI50,[12],17.4 µM (inactive)
same,GI50,[13],18 µM (inactive)
same,GI50,[14],20.2 µM (inactive)
same,GI50,[15],1.79 µM (inactive)
same,GI50,[16],15.1 µM (inactive)
same,GI50,[17],16.7 µM (inactive)
same,GI50,[18],14.5 µM (inactive)
same,GI50,[19],2.68 µM (inactive)
same,GI50,[20],3.68 µM (inactive)
same,GI50,[21],4.22 µM (inactive)
same,GI50,[22],15.7 µM (inactive)
same,GI50,[23],6.81 µM (inactive)
same,GI50,[24],5.94 µM (inactive)
same,GI50,[25],6.28 µM (inactive)
same,GI50,[26],22.4 µM (inactive)
same,GI50,[27],9.44 µM (inactive)
same,GI50,[28],1.6 µM (inactive)
same,GI50,[29],20.7 µM (inactive)
same,GI50,[30],16.4 µM (inactive)
same,GI50,[31],21.9 µM (inactive)
same,GI50,[32],22.9 µM (inactive)
same,GI50,[33],16.6 µM (inactive)
same,GI50,[34],19.6 µM (inactive)
same,GI50,[35],21.1 µM (inactive)
same,GI50,[36],30.4 µM (inactive)
same,GI50,[37],8.39 µM (inactive)
same,GI50,[38],14.1 µM (inactive)
same,GI50,[39],2.06 µM (inactive)
same,GI50,[40],18.2 µM (inactive)
same,GI50,[41],19.2 µM
same,GI50,[42],16.4 µM (inactive)
same,GI50,[43],5.85 µM (inactive)
same,GI50,[44],15.6 µM (inactive)
same,GI50,[45],18.2 µM (inactive)
same,GI50,[46],9.89 µM (inactive)
same,GI50,[47],18.7 µM (inactive)
same,GI50,[48],2.05 µM (inactive)
same,GI50,[49],22.5 µM (inactive)
same,GI50,[50],14.7 µM (inactive)
same,GI50,[51],13.6 µM (inactive)
same,GI50,[52],1.36 µM (inactive)
same,GI50,[53],3.26 µM (inactive)
same,GI50,[54],4.33 µM (inactive)
same,GI50,[55],18 µM (inactive)
same,GI50,[56],16.6 µM (inactive)
same,GI50,[57],17 µM (inactive)
same,GI50,[58],1.81 µM (inactive)
CCc1c(O)cc(=O)oc1-c1ccc(OC)c(OC)c1,GI50,[1],> 100 µM (inactive)
same,GI50,[2],> 100 µM (inactive)
same,GI50,[3],> 100 µM (inactive)
same,GI50,[4],> 100 µM (inactive)
same,GI50,[5],> 100 µM (inactive)
same,GI50,[6],> 100 µM (inactive)
same,GI50,[7],> 100 µM (inactive)
same,GI50,[8],> 100 µM (inactive)
same,GI50,[9],> 100 µM (inactive)
same,GI50,[10],> 100 µM (inactive)
same,GI50,[11],> 100 µM (inactive)
same,GI50,[12],> 100 µM (inactive)
same,GI50,[13],> 100 µM (inactive)
same,GI50,[14],> 100 µM (inactive)
same,GI50,[15],> 100 µM (inactive)
same,GI50,[16],> 100 µM (inactive)
same,GI50,[17],> 100 µM (inactive)
same,GI50,[18],> 100 µM (inactive)
same,GI50,[20],> 100 µM (inactive)
same,GI50,[21],64.1 µM (inactive)
same,GI50,[22],72.6 µM (inactive)
same,GI50,[23],> 100 µM (inactive)
same,GI50,[24],> 100 µM (inactive)
same,GI50,[25],> 100 µM (inactive)
same,GI50,[26],> 100 µM (inactive)
same,GI50,[27],> 100 µM (inactive)
same,GI50,[28],> 100 µM (inactive)
same,GI50,[29],> 100 µM (inactive)
same,GI50,[30],> 100 µM (inactive)
same,GI50,[31],> 100 µM (inactive)
same,GI50,[32],> 100 µM (inactive)
same,GI50,[33],> 100 µM (inactive)
same,GI50,[34],> 100 µM (inactive)
same,GI50,[36],> 100 µM (inactive)
same,GI50,[37],> 100 µM (inactive)
same,GI50,[38],> 100 µM (inactive)
same,GI50,[40],> 100 µM (inactive)
same,GI50,[41],> 100 µM
same,GI50,[42],> 100 µM (inactive)
same,GI50,[43],> 100 µM (inactive)
same,GI50,[44],> 100 µM (inactive)
same,GI50,[45],> 100 µM (inactive)
same,GI50,[46],> 100 µM (inactive)
same,GI50,[47],> 100 µM (inactive)
same,GI50,[48],> 100 µM (inactive)
same,GI50,[49],> 100 µM (inactive)
same,GI50,[50],> 100 µM (inactive)
same,GI50,[51],> 100 µM (inactive)
same,GI50,[54],> 100 µM (inactive)
same,GI50,[55],> 100 µM (inactive)
same,GI50,[56],> 100 µM (inactive)
same,GI50,[57],> 100 µM (inactive)
same,GI50,[58],> 100 µM (inactive)
COc1ccc(-c2oc3cc(OC)ccc3c(=O)c2O)cc1,GI50,[1],3.31 µM (inactive)
same,GI50,[2],> 25.4 µM (inactive)
same,GI50,[4],2.66 µM (inactive)
same,GI50,[6],3.15 µM (inactive)
same,GI50,[7],43.4 µM (inactive)
same,GI50,[8],0.668 µM (active)
same,GI50,[10],4.79 µM (inactive)
same,GI50,[12],5.13 µM (inactive)
same,GI50,[15],> 27.7 µM (inactive)
same,GI50,[16],2.53 µM (inactive)
same,GI50,[18],> 100 µM (inactive)
same,GI50,[19],> 23.1 µM (inactive)
same,GI50,[20],9.42 µM (inactive)
same,GI50,[21],3.18 µM (inactive)
same,GI50,[23],> 100 µM (inactive)
same,GI50,[24],9.02 µM (inactive)
same,GI50,[25],5.19 µM (inactive)
same,GI50,[26],> 100 µM (inactive)
same,GI50,[27],4.12 µM (inactive)
same,GI50,[28],3.88 µM (inactive)
same,GI50,[29],3.37 µM (inactive)
same,GI50,[31],> 100 µM (inactive)
same,GI50,[32],> 100 µM (inactive)
same,GI50,[33],> 100 µM (inactive)
same,GI50,[34],3.7 µM (inactive)
same,GI50,[36],1.54 µM (inactive)
same,GI50,[37],> 100 µM (inactive)
same,GI50,[39],> 31.6 µM (inactive)
same,GI50,[59],> 100 µM (inactive)
same,GI50,[40],> 10 µM (inactive)
same,GI50,[41],3.63 µM
same,GI50,[42],> 100 µM (inactive)
same,GI50,[44],> 25.5 µM (inactive)
same,GI50,[46],4.25 µM (inactive)
same,GI50,[47],> 100 µM (inactive)
same,GI50,[48],3.43 µM (inactive)
same,GI50,[53],3.57 µM (inactive)
same,GI50,[54],4.15 µM (inactive)
same,GI50,[58],3.42 µM (inactive)
